Measurements as given in ChEMBL document CHEMBL1149935, “17-hydroxywortmannin: A potent inhibitor of bone resorption and phosphatidylinositol-3-kinase” (Bioorg Med Chem Lett, 1995).

Experiments:
[1] = organism: Gallus gallus; assay: Compound was evaluated for inhibitory activity against bone resorption in avian osteoclast
[2] = Inhibition of bovine Phosphatidylinositol 3-kinase; design: species or system Bos taurus

Row | SMILES | IC50 [1] | IC50 [2]
1 | COC[C@H]1OC(=O)c2coc3c2[C@@]1(C)C1=CC[C@]2(C)C(=O)CC[C@H]2C1C3=O (stereo partly drawn) |  | 54 nM
2 | COC[C@H]1OC(=O)c2coc3c2[C@@]1(C)C1=C(C3=O)[C@@H]2CC[C@H](O)[C@@]2(C)C[C@H]1OC(C)=O | 10 nM | 0.5 nM
3 | COC[C@H]1OC(=O)c2coc3c2[C@@]1(C)C1=C(C3=O)C2CCC(O)[C@@]2(C)CC1 (stereo partly drawn) | 103 nM | 
4 | NCCCC(O)(P(=O)(O)O)P(=O)(O)O [ALENDRONIC ACID] | 100 nM | > 50000 nM
5 | COC[C@H]1OC(=O)c2coc3c2[C@@]1(C)C1=C(C3=O)[C@@H]2CCC(=O)[C@@]2(C)C[C@H]1OC(C)=O [WORTMANNIN] | 98 nM | 4.2 nM

Continued, values first:

Row | IC50 [1] | IC50 [2] | SMILES
6 | > 1000 nM | 4600 nM | COC(=O)c1coc2c(O)c3c(c(C)c12)C=C[C@]1(C)C(=O)CC[C@@H]31
7 | 506 nM | 16.7 nM | COC[C@H]1OC(=O)c2coc3c2[C@@]1(C)C1=C(C3=O)[C@@H]2CCC(=O)[C@@]2(C)CC1
8 | > 1000 nM | > 500 nM | COC[C@H]1OC(=O)c2c(C)oc3c2[C@@]1(C)C1=C(C3=O)[C@@H]2CCC(=O)[C@@]2(C)C[C@H]1OC(C)=O
9 | > 1000 nM | > 32000 nM | Cc1c2c(c(O)c3occ(C(=O)O)c13)C1CCC(=O)[C@@]1(C)C=C2 (stereo partly drawn)
10 | 100000 nM | > 50000 nM | CC(O)(P(=O)(O)O)P(=O)(O)O [ETIDRONIC ACID]
